Results as given in patent US20210115104A1, “AMYLIN ANALOGUES” (Zealand Pharma A/S, priority 2015, published 2021).
*1 amine or outer side, *2 acyl side, *3 side chain or, on linkers, in order; H or OH if unused. Where a SMILES comes first, the peptide text is derived from it. Bridges are numbered along the chain shown (N, C = ends). [ ]: non-standard residue; d: D form. The star is where a group is joined. C20 diacid = O=C(O)CCCCCCCCCCCCCCCCCCC(=O)*; γGlu = O=C(O)[C@H](CCC(=O)[*:2])N[*:1]; Hyp = O=C(O)[C@@H]1C[C@@H](O)CN1; NMeI = CC[C@H](C)[C@H](NC)C(=O)O; Aad = N[C@@H](CCCC(=O)O)C(=O)O; Sar = CNCC(=O)O

Molecular target: T1, human calcitonin receptor (hCTR2) (Homo sapiens, UniProt P30988)
T1 construct: expressed in transfected cells
T1 sequence (P30988 25-474): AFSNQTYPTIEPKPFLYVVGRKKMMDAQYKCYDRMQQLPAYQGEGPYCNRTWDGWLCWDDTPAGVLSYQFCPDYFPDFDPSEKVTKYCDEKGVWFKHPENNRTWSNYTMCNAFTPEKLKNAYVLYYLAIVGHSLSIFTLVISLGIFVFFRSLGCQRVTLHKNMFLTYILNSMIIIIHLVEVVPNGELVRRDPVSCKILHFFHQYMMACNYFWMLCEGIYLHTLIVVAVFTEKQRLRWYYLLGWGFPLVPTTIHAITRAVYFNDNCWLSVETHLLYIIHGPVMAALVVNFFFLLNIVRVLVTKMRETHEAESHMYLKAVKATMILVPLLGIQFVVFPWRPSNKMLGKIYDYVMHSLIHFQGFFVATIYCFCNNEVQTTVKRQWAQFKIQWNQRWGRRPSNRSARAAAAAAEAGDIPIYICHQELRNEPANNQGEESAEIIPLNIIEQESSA
Test: hCTR2 cAMP assay (AlphaScreen) in COS7 cells
Type: cell-based
Settings: cAMP induction, COS7 cells expressing hCTR2; Table 1; read-out: hCTR2 EC50
Text: The cell line COS7, originating from African Green Monkey kidney fibroblast cells, was used for establishment of the stable cell lines described below. The COS7 cellular background was used due to it being RAMP naïve, and as such it provides the best available system for testing of the monomeric hCTR and different heterodimeric amylin receptor subtypes functionally generated by introduction of the individual RAMPs.
A cell line expressing the human calcitonin receptor (hCTR2) was generated in the COS7 cellular background as stable clones. In brief, hCTR2 (GI: 4502547) was amplified by PCR using primers encoding terminal restriction sites for subcloning. The 5′-end primers additionally encoded a near Kozak consensus sequence to ensure efficient translation. The fidelity of the DNA encoding the receptor was confirmed by DNA sequencing. The PCR products encoding the receptor were subcloned into a mammalian expression vector containing a neomycin (G418) resistance marker. The mammalian expression vector encoding the receptor was transfected into COS7 cells by a standard liposome transfection method. 48 hours post-transfection, cells were seeded for limited dilution cloning and selected with 1 mg/ml G418 in the culture medium. After 3 weeks, surviving colonies of hCTR2-expressing cells were picked, propagated and tested in the amylin efficacy assay as described in Example 3 below. One hCTR2-expressing clone was chosen for compound profiling.
In vitro activity of test peptides at the hCTR2 and hAMYR3 receptors was assessed by measuring the induction of cAMP following stimulation of the receptor using the AlphaScreen® cAMP Assay kit from Perkin-Elmer.
Briefly, COS7 cells expressing hCTR2 (see Example 2, above) were seeded at 30-40,000 cells per well in 96-well microtiter plates coated with 0.01% poly-L-lysine, and grown for 1 day in culture in 100 μl growth medium [DMEM, 10% FCS, Penicillin (100 IU/ml), Streptomycin (100 μg/ml)]. On the day of analysis, growth medium was removed and the cells were washed once with 200 μl Tyrode buffer [Tyrode's Salts (9.6 g/I), 10 mM HEPES, pH 7.4]. Cells were incubated in 100 μl Tyrode buffer containing increasing concentrations of test peptides, 100 µM IBMX and 0.1% casein for 15 min at 37° C. The reaction was stopped by carefully decanting off the compound/buffer medium and replacing it with lysis/detection buffer (80 μl 0.1% w/v BSA, 5 mM HEPES, 0.3% v/v Tween-20 in deionized water). After incubation at room temperature for 10 min., the cAMP content of the resulting cell lysate was estimated according to the AlphaScreen® cAMP Assay manufacturer's instructions. EC50 values were estimated by computer-aided curve fitting using the 4-parameter logistic (4PL) non-linear model.

SMILES	EC50
CC[C@H](C)[C@@H](C(=O)N[C@@H](CC(C)C)C(=O)N[C@@H](CO)C(=O)N[C@@H](CO)C(=O)N[C@H](C(=O)N[C@@H](CCC(=O)O)C(=O)N[C@H](C(=O)NCC(=O)N[C@@H](CO)C(=O)N[C@@H](CC(N)=O)C(=O)N[C@H](C(=O)N1CCC[C@H]1C(N)=O)[C@@H](C)O)C(C)C)[C@@H](C)O)N(C)C(=O)[C@H](C)NC(=O)CN(C)C(=O)[C@H](Cc1ccccc1)NC(=O)[C@H](CO)NC(=O)[C@H](CO)NC(=O)[C@H](CCCNC(=N)N)NC(=O)[C@H](CCC(N)=O)NC(=O)[C@H](CC(C)C)NC(=O)[C@H](Cc1ccccc1)NC(=O)[C@H](Cc1c[nH]cn1)NC(=O)[C@H](C)NC(=O)[C@H](CC(C)C)NC(=O)[C@H](CCCNC(=N)N)NC(=O)[C@H](CCC(N)=O)NC(=O)[C@@H](NC(=O)[C@H](C)NC(=O)[C@@H]1CSSC[C@H](NC(=O)[C@H](CCCNC(=N)N)NC(=O)CC[C@H](NC(=O)CCCCCCCCCCCCCCCCCCC(=O)O)C(=O)O)C(=O)N[C@@H](CC(N)=O)C(=O)N[C@@H]([C@@H](C)O)C(=O)N[C@@H](C)C(=O)N[C@@H]([C@@H](C)O)C(=O)N1)[C@@H](C)O [Compound 61, [19CD]-isoGlu-R-C( )-NTAT-C( )-ATQRLAHFLQRSSF-Gly(Me)-A-Ile(Me)-LSSTEVGSNTP-NH2] ({C20 diacid-γGlu}-RCNTATCATQRLAHFLQRSSF[Sar]A[NMeI]LSSTEVGSNTP-NH2; disulfide 2-7)	0.12 nM
CC[C@H](C)[C@@H](C(=O)N[C@@H](CC(C)C)C(=O)N[C@@H](CO)C(=O)N[C@@H](CO)C(=O)N[C@H](C(=O)N[C@@H](CCC(=O)O)C(=O)N[C@H](C(=O)NCC(=O)N[C@@H](CO)C(=O)N[C@@H](CC(N)=O)C(=O)N[C@H](C(=O)N1C[C@H](O)C[C@H]1C(N)=O)[C@@H](C)O)C(C)C)[C@@H](C)O)N(C)C(=O)[C@H](C)NC(=O)CN(C)C(=O)[C@H](Cc1ccccc1)NC(=O)[C@H](CO)NC(=O)[C@H](CO)NC(=O)[C@H](CCCNC(=N)N)NC(=O)[C@H](CCC(N)=O)NC(=O)[C@H](CC(C)C)NC(=O)[C@H](Cc1ccccc1)NC(=O)[C@H](Cc1c[nH]cn1)NC(=O)[C@H](C)NC(=O)[C@H](CC(C)C)NC(=O)[C@H](CCCNC(=N)N)NC(=O)[C@H](CCC(=O)O)NC(=O)[C@@H](NC(=O)[C@H](C)NC(=O)[C@@H]1CSSC[C@H](NC(=O)[C@H](CCCNC(=N)N)NC(=O)CC[C@H](NC(=O)CCCCCCCCCCCCCCCCCCC(=O)O)C(=O)O)C(=O)N2CCC[C@H]2C(=O)N[C@@H]([C@@H](C)O)C(=O)N[C@@H](C)C(=O)N[C@@H]([C@@H](C)O)C(=O)N1)[C@@H](C)O [Compound 63, [19CD]-isoGlu-R-C( )-PTAT-C( )-ATERLAHFLQRSSF-Gly(Me)-A-Ile(Me)-LSSTEVGSNT-Hyp-NH2] ({C20 diacid-γGlu}-RCPTATCATERLAHFLQRSSF[Sar]A[NMeI]LSSTEVGSNT[Hyp]-NH2; disulfide 2-7)	0.35 nM
CC[C@H](C)[C@@H](C(=O)N[C@@H](CC(C)C)C(=O)N[C@@H](CO)C(=O)N[C@@H](CO)C(=O)N[C@H](C(=O)N[C@@H](CCC(=O)O)C(=O)N[C@H](C(=O)NCC(=O)N[C@@H](CO)C(=O)N[C@@H](CC(N)=O)C(=O)N[C@H](C(=O)N1CCC[C@H]1C(N)=O)[C@@H](C)O)C(C)C)[C@@H](C)O)N(C)C(=O)[C@H](C)NC(=O)CN(C)C(=O)[C@H](Cc1ccccc1)NC(=O)[C@H](CO)NC(=O)[C@H](CO)NC(=O)[C@H](CCCNC(=N)N)NC(=O)[C@H](CCC(N)=O)NC(=O)[C@H](CC(C)C)NC(=O)[C@H](Cc1ccccc1)NC(=O)[C@H](CC(=O)O)NC(=O)[C@H](C)NC(=O)[C@H](CC(C)C)NC(=O)[C@H](CCCNC(=N)N)NC(=O)[C@H](CCC(=O)O)NC(=O)[C@@H](NC(=O)[C@H](C)NC(=O)[C@@H]1CSSC[C@H](NC(=O)[C@H](CCCNC(=N)N)NC(=O)CC[C@H](NC(=O)CCCCCCCCCCCCCCCCCCC(=O)O)C(=O)O)C(=O)N2CCC[C@H]2C(=O)N[C@@H]([C@@H](C)O)C(=O)N[C@@H](C)C(=O)N[C@@H]([C@@H](C)O)C(=O)N1)[C@@H](C)O [Compound 67, [19CD]-isoGlu-R-C( )-PTAT-C( )-ATERLADFLQRSSF-Gly(Me)-A-Ile(Me)-LSSTEVGSNTP-NH2] ({C20 diacid-γGlu}-RCPTATCATERLADFLQRSSF[Sar]A[NMeI]LSSTEVGSNTP-NH2; disulfide 2-7)	0.27 nM
CC[C@H](C)[C@@H](C(=O)N[C@@H](CC(C)C)C(=O)N[C@@H](CO)C(=O)N[C@@H](CO)C(=O)N[C@H](C(=O)N[C@@H](CCC(=O)O)C(=O)N[C@H](C(=O)NCC(=O)N[C@@H](CO)C(=O)N[C@H](C(=O)N[C@H](C(=O)N1C[C@H](O)C[C@H]1C(N)=O)[C@@H](C)O)[C@@H](C)O)C(C)C)[C@@H](C)O)N(C)C(=O)[C@H](C)NC(=O)CN(C)C(=O)[C@H](Cc1ccccc1)NC(=O)[C@H](CO)NC(=O)[C@H](CO)NC(=O)[C@H](CCCNC(=N)N)NC(=O)[C@H](CCC(N)=O)NC(=O)[C@H](CC(C)C)NC(=O)[C@H](Cc1ccccc1)NC(=O)[C@H](Cc1c[nH]cn1)NC(=O)[C@H](C)NC(=O)[C@H](CC(C)C)NC(=O)[C@H](CCCNC(=N)N)NC(=O)[C@H](CCC(=O)O)NC(=O)[C@@H](NC(=O)[C@H](C)NC(=O)[C@@H]1CSSC[C@H](NC(=O)[C@H](CCCNC(=N)N)NC(=O)CC[C@H](NC(=O)CCCCCCCCCCCCCCCCCCC(=O)O)C(=O)O)C(=O)N2CCC[C@H]2C(=O)N[C@@H]([C@@H](C)O)C(=O)N[C@@H](C)C(=O)N[C@@H]([C@@H](C)O)C(=O)N1)[C@@H](C)O [Compound 74, [19CD]-isoGlu-R-C( )-PTAT-C( )-ATERLAHFLQRSSF-Gly(Me)-A-Ile(Me)-LSSTEVGSTT-Hyp-NH2] ({C20 diacid-γGlu}-RCPTATCATERLAHFLQRSSF[Sar]A[NMeI]LSSTEVGSTT[Hyp]-NH2; disulfide 2-7)	0.58 nM
CC[C@H](C)[C@@H](C(=O)N[C@@H](CC(C)C)C(=O)N[C@@H](CO)C(=O)N[C@@H](CO)C(=O)N[C@H](C(=O)N[C@@H](CCC(=O)O)C(=O)N[C@H](C(=O)NCC(=O)N[C@@H](CO)C(=O)N[C@@H](CCCC(=O)O)C(=O)N[C@H](C(=O)N1C[C@H](O)C[C@H]1C(N)=O)[C@@H](C)O)C(C)C)[C@@H](C)O)N(C)C(=O)[C@H](C)NC(=O)CN(C)C(=O)[C@H](Cc1ccccc1)NC(=O)[C@H](CO)NC(=O)[C@H](CO)NC(=O)[C@H](CCCNC(=N)N)NC(=O)[C@H](CCC(N)=O)NC(=O)[C@H](CC(C)C)NC(=O)[C@H](Cc1ccccc1)NC(=O)[C@H](Cc1c[nH]cn1)NC(=O)[C@H](C)NC(=O)[C@H](CC(C)C)NC(=O)[C@H](CCCNC(=N)N)NC(=O)[C@H](CCC(=O)O)NC(=O)[C@@H](NC(=O)[C@H](C)NC(=O)[C@@H]1CSSC[C@H](NC(=O)[C@H](CCCNC(=N)N)NC(=O)CC[C@H](NC(=O)CCCCCCCCCCCCCCCCCCC(=O)O)C(=O)O)C(=O)N2CCC[C@H]2C(=O)N[C@@H]([C@@H](C)O)C(=O)N[C@@H](C)C(=O)N[C@@H]([C@@H](C)O)C(=O)N1)[C@@H](C)O [Compound 76, [19CD]-isoGlu-R-C( )-PTAT-C( )-ATERLAHFLQRSSF-Gly(Me)-A-Ile(Me)-LSSTEVGS-Aad-T-Hyp-NH2] ({C20 diacid-γGlu}-RCPTATCATERLAHFLQRSSF[Sar]A[NMeI]LSSTEVGS[Aad]T[Hyp]-NH2; disulfide 2-7)	0.44 nM
